Laboratory results: patent US9499502B2, “5-substituted iminothiazines and their mono- and dioxides as BACE inhibitors, compositions, and their use” (Merck Sharp & Dohme Corp., priority 2011, dated 2016)

What follows are compounds tested against soluble human BACE1 catalytic domain (Homo sapiens (Human), UniProt P56817) (assay: BACE1 HTRF FRET Assay). Conditions: BACE1 Ki (nM).
soluble human BACE1 catalytic domain, sequence (P56817 75-416): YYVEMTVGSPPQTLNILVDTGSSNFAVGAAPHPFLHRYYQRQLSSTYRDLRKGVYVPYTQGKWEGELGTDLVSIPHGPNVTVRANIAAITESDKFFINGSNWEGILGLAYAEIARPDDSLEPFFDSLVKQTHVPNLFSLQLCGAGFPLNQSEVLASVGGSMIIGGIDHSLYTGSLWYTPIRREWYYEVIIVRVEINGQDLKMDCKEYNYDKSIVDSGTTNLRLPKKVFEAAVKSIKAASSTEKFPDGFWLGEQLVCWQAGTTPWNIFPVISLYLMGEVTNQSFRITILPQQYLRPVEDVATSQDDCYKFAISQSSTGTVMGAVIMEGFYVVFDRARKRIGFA

Ki [nM] | SMILES
3860 | Cc1nc2cc(CC3(C)C(=N)N[C@](C)(c4cc(F)ccc4F)CS3(=O)=O)ccc2o1 (single isomer, unassigned) [Example 32a-a]
4640 | Cc1nc2cc(CC3(C)C(=N)N[C@](C)(c4cc(F)ccc4F)CS3(=O)=O)ccc2o1 (single isomer, unassigned) [Example 32a-b]

Same assay, conditions: BACE1 Ki (nM), Ki calculated from IC50 using the Cheng-Prusoff equation

SMILES | Ki [nM]
CC1(C)C(=N)N[C@](C)(c2cc(NC(=O)c3ccc(F)cn3)ccc2F)CS1(=O)=O [Example 1] | < 5
CC1(C)C(=N)N[C@](C)(c2cc(NC(=O)c3ncc(F)cc3F)ccc2F)CS1(=O)=O [Example 2] | < 5

Same assay, conditions: read-out: BACE1 % Inh. at 10 μM, at 10 μM

inhibition at 10 µM [%] | SMILES
23 | CN(C)CC(=O)Nc1ccc(F)c([C@]2(C)CS(=O)(=O)C(C)(C)C(=N)N2)c1 [Example 9ay]

Same assay, conditions: read-out: BACE1 Ki; Ki calculated from IC50 using the Cheng-Prusoff equation

Ki [nM] | SMILES
0.9 | CC1(C)C(=N)N[C@](C)(c2cc(NC(=O)c3ncc(F)cc3F)ccc2F)CS1(=O)=O [Example 2]
8 | Cc1ccc(C(=O)Nc2ccc(F)c([C@]3(C)CS(=O)(=O)C(C)(C)C(=N)N3)c2)nc1 [Example 4]
0.7 | CC1(C)C(=N)N[C@](C)(c2cc(NC(=O)c3ccc(C(F)(F)F)cn3)ccc2F)CS1(=O)=O [Example 6]
19 | CC1(C)C(=N)N[C@](C)(c2cc(NC(=O)c3ccc(Cl)cc3)ccc2F)CS1(=O)=O [Example 8]
< 0.5 | CC1(C)C(=N)N[C@](C)(c2cc(NC(=O)c3ncc(Cl)cc3Cl)ccc2F)CS1(=O)=O [Example 9]
4.6 | COc1ccc(C(=O)Nc2ccc(F)c([C@]3(C)CS(=O)(=O)C(C)(C)C(=N)N3)c2)nc1 [Example 9a]
35.4 | CC1(C)C(=N)N[C@](C)(c2c(F)c(F)cc(NC(=O)c3ccc(F)cn3)c2F)CS1(=O)=O [Example 9aa]
9.6 | CC1(C)C(=N)N[C@](C)(c2c(F)c(F)cc(NC(=O)c3ccc(Cl)cn3)c2F)CS1(=O)=O [Example 9ab]
739 | CC1(C(=O)Nc2ccc(F)c([C@]3(C)CS(=O)(=O)C(C)(C)C(=N)N3)c2)COC1 [Example 9af]
663 | CC1(C)C(=N)N[C@](C)(c2cc(NC(=O)CC(F)(F)F)ccc2F)CS1(=O)=O [Example 9ag]
210 | CC1(C)C(=N)N[C@](C)(c2cc(NC(=O)C3(C#N)CC3)ccc2F)CS1(=O)=O [Example 9ah]
1490 | CC1(C(=O)Nc2ccc(F)c([C@]3(C)CS(=O)(=O)C(C)(C)C(=N)N3)c2)CC1 [Example 9aj]
26 | Cc1cnc(C(=O)Nc2ccc(F)c([C@]3(C)CS(=O)(=O)C(C)(C)C(=N)N3)c2)cn1 [Example 9ak]
172 | CC1(C)C(=N)N[C@](C)(c2cc(NC(=O)[C@H]3CCCO3)ccc2F)CS1(=O)=O [Example 9al]
359 | CC1(C)C(=N)N[C@](C)(c2cc(NC(=O)C3CC3)ccc2F)CS1(=O)=O [Example 9am]
1440 | CC(=O)Nc1ccc(F)c([C@]2(C)CS(=O)(=O)C(C)(C)C(=N)N2)c1 [Example 9an]
3240 | Cc1noc(CC(=O)Nc2ccc(F)c([C@]3(C)CS(=O)(=O)C(C)(C)C(=N)N3)c2)n1 [Example 9ao]
39 | CC1(C)C(=N)N[C@](C)(c2cc(NC(=O)c3cocn3)ccc2F)CS1(=O)=O [Example 9ap]
476 | CC1(C)C(=N)N[C@](C)(c2cc(NC(=O)C3CCC3)ccc2F)CS1(=O)=O [Example 9aq]
915 | CC1(C)C(=N)N[C@](C)(c2cc(NC(=O)CC3CC3)ccc2F)CS1(=O)=O [Example 9ar]
521 | CCC(=O)Nc1ccc(F)c([C@]2(C)CS(=O)(=O)C(C)(C)C(=N)N2)c1 [Example 9as]
195 | CC1(C)C(=N)N[C@](C)(c2cc(NC(=O)C(F)F)ccc2F)CS1(=O)=O [Example 9au]
8580 | CC1(C)C(=N)N[C@](C)(c2cc(NC(=O)C3CCOCC3)ccc2F)CS1(=O)=O [Example 9av]

SMILES | Ki [nM]
CC1(C)C(=N)N[C@](C)(c2cc(NC(=O)c3ccc(F)cn3)ccc2F)CS1(=O)=O [Example 1] | 1.2

Same assay, conditions: read-out: BACE1 inhibition, % Inh. at 10 μM, at 10 μM

inhibition at 10 µM [%] | SMILES
45 | CC1(C)C(=N)N[C@](C)(c2c(F)c(F)cc([N+](=O)[O-])c2F)CS1(=O)=O [Entry 15]
37 | C[C@@]1(c2cc(N)ccc2F)CS(=O)(=O)[C@](C)(CC(F)(F)F)C(=N)N1 [Entry 36]
38 | C=CC[C@]1(C)C(=N)N[C@](C)(c2cc(N)ccc2F)CS1(=O)=O [Entry 44]
37 | C[C@@]1(c2cc(N)ccc2F)CS(=O)(=O)[C@](C)(CC2CC2)C(=N)N1 [Entry 48]
44 | C[C@@]1(c2ccccn2)C(=N)N[C@](C)(c2sc(Br)cc2F)CS1(=O)=O [Entry 86]
45 | CC1(C)C(=N)N[C@](C)(c2cc([N+](=O)[O-])ccc2F)CS1(=O)=O [Example 2-1]

Same assay, conditions: read-out: BACE1 inhibition, Ki

Ki [nM] | SMILES
3600 | CC1(C)C(=N)N[C@](C)(c2c(F)ccc(N)c2F)CS1(=O)=O [Entry 13]
2400 | CC1(C)C(=N)N[C@](C)(c2c(F)ccc(F)c2F)CS1(=O)=O [Entry 14]
4800 | CC(C)[C@@]1(C)C(=N)N[C@](C)(c2cc(N)ccc2F)CS1(=O)=O [Entry 27]
7300 | CC(C)[C@]1(C)C(=N)N[C@](C)(c2cc(N)ccc2F)CS1(=O)=O [Entry 28]
3000 | C[C@]1(CC(F)(F)F)C(=N)N[C@](C)(c2cc(N)ccc2F)CS1(=O)=O [Entry 35]
1700 | C[C@@]1(c2cc(N)ccc2F)CS(=O)(=O)[C@@](C)(C2CCC2)C(=N)N1 [Entry 39]
1800 | C[C@]1(CC2CC2)C(=N)N[C@](C)(c2cc(N)ccc2F)CS1(=O)=O [Entry 47]
500 | C[C@@]1(c2cc(N)ccc2F)CS(=O)(=O)[C@@](C)(C2CCOCC2)C(=N)N1 [Entry 50]
1300 | C[C@]1(CC2CCOCC2)C(=N)N[C@](C)(c2cc(N)ccc2F)CS1(=O)=O [Entry 53]
1100 | C[C@@]1(c2cc(N)ccc2F)CS(=O)(=O)[C@@](C)(c2cccc(F)c2)C(=N)N1 [Entry 60]
600 | C[C@@]1(c2cc([N+](=O)[O-])ccc2F)CS(=O)(=O)[C@@](C)(c2cccc(C(F)(F)F)c2)C(=N)N1 [Entry 66]
1400 | C[C@@]1(c2cc(N)ccc2F)CS(=O)(=O)[C@@](C)(c2cccc(C(F)(F)F)c2)C(=N)N1 [Entry 68]
1400 | C[C@@]1(c2cc(N)ccc2F)CS(=O)(=O)[C@@](C)(c2cc(C(F)(F)F)ccn2)C(=N)N1 [Entry 72]
4600 | C[C@@]1(c2cc(N)ccc2F)CS(=O)(=O)[C@@](C)(c2cc(C(F)(F)F)ccn2)C(=N)N1 [Entry 73]
6600 | C[C@@]1(c2cc(N)ccc2F)CS(=O)(=O)[C@@](C)(c2ccccn2)C(=N)N1 [Entry 76]
1500 | C[C@@]1(c2sc(Br)cc2F)CS(=O)(=O)[C@@](C)(c2ccccn2)C(=N)N1 [Entry 85]
600 | C[C@@]1(c2sc(Br)cc2F)CS(=O)(=O)[C@@](C)(c2cccc(F)c2)C(=N)N1 [Entry 87]
1900 | COCC1(COC)C(=N)N[C@](C)(c2sc(Br)cc2Cl)CS1(=O)=O [Entry 89]
3100 | CC1(C)C(=N)N[C@](C)(c2cc(N)cc(Cl)c2F)CS1(=O)=O [Example 2A-7]
500 | C[C@]1(CC(F)(F)F)C(=N)N[C@](C)(c2sc(Br)cc2F)CS1(=O)=O [Example 6F-3a]

SMILES | Ki [nM]
CC1(C)C(=N)N[C@](C)(c2cccc(Cl)c2F)CS1(=O)=O [Entry 7] | 1400
CC1(C)C(=N)N[C@](C)(c2c(F)cccc2F)CS1(=O)=O [Entry 11] | 1300
CC1(C)C(=N)N[C@](C)(c2nc(N)ccc2F)CS1(=O)=O [Example 2F-3] | 6200
CC1(C)C(=N)N[C@](C)(c2cc(Br)cs2)CS1(=O)=O [Example 6C-1] | 4700
